Results on three compounds are retold here after patent US12479847B2 (DANA-FARBER CANCER INSTITUTE, INC., priority 2019, dated 2025).

What all share (assay): KINOMEscan (ScanMAX) kinase profiling
Holding throughout (type): binding

In experiment [1] the target is T1, panel of 468 kinases (Homo sapiens, UniProt Q8IWQ3).
T1 construct: purchased KINOMEscan (ScanMAX) service
T1 sequence (Q8IWQ3 1-736): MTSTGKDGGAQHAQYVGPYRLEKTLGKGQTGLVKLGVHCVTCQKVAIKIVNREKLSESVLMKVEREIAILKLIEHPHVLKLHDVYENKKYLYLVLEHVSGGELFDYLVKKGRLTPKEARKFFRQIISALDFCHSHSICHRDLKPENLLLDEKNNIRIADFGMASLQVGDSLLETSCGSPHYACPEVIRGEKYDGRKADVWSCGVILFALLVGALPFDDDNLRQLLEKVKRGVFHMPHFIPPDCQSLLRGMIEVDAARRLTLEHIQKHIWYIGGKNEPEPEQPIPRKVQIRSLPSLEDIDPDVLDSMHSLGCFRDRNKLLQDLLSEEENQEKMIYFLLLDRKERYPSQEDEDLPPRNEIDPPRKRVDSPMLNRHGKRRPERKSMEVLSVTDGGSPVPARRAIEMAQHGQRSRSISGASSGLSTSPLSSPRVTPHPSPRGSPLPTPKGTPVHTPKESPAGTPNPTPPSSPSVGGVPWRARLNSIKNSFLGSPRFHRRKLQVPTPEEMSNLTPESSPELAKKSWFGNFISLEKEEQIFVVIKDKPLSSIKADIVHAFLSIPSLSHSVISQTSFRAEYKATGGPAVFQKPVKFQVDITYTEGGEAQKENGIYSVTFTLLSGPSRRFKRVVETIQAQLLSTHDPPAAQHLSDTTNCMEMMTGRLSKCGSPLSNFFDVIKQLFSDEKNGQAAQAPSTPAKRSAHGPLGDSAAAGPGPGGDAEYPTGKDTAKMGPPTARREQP
The following applies: BRSK2; 1 μM; read-out: % control.

The target of experiment [2] is T2, panel of 468 kinases (Homo sapiens, UniProt O75582).
T2 construct: purchased KINOMEscan (ScanMAX) service
T2 sequence (O75582 whole entry): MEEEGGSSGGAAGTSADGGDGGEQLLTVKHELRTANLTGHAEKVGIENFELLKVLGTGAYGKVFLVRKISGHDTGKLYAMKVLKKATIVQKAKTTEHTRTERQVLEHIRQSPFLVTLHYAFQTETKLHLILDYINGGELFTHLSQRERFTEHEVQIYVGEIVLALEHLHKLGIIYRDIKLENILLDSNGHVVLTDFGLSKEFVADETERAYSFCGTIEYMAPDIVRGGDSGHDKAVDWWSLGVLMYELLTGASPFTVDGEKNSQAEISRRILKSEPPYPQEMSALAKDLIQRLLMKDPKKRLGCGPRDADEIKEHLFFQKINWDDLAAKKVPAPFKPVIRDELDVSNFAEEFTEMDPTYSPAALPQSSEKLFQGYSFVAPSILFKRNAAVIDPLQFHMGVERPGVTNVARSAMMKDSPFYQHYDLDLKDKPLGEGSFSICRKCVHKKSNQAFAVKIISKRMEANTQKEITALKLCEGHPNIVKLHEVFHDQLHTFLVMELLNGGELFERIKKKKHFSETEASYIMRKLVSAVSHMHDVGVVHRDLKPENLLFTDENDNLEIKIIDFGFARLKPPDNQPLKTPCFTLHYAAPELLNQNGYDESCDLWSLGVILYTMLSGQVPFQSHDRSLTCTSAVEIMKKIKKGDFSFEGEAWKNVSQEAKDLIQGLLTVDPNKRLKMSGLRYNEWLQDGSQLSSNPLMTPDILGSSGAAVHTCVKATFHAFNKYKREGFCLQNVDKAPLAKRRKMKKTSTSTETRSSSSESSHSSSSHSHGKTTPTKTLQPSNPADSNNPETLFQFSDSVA
The following applies: 1 μM, read-out: % control.

The target of experiment [3] is T3, panel of 468 kinases (Homo sapiens, UniProt P21860).
T3 construct: purchased KINOMEscan (ScanMAX) service
T3 sequence (P21860 20-1342): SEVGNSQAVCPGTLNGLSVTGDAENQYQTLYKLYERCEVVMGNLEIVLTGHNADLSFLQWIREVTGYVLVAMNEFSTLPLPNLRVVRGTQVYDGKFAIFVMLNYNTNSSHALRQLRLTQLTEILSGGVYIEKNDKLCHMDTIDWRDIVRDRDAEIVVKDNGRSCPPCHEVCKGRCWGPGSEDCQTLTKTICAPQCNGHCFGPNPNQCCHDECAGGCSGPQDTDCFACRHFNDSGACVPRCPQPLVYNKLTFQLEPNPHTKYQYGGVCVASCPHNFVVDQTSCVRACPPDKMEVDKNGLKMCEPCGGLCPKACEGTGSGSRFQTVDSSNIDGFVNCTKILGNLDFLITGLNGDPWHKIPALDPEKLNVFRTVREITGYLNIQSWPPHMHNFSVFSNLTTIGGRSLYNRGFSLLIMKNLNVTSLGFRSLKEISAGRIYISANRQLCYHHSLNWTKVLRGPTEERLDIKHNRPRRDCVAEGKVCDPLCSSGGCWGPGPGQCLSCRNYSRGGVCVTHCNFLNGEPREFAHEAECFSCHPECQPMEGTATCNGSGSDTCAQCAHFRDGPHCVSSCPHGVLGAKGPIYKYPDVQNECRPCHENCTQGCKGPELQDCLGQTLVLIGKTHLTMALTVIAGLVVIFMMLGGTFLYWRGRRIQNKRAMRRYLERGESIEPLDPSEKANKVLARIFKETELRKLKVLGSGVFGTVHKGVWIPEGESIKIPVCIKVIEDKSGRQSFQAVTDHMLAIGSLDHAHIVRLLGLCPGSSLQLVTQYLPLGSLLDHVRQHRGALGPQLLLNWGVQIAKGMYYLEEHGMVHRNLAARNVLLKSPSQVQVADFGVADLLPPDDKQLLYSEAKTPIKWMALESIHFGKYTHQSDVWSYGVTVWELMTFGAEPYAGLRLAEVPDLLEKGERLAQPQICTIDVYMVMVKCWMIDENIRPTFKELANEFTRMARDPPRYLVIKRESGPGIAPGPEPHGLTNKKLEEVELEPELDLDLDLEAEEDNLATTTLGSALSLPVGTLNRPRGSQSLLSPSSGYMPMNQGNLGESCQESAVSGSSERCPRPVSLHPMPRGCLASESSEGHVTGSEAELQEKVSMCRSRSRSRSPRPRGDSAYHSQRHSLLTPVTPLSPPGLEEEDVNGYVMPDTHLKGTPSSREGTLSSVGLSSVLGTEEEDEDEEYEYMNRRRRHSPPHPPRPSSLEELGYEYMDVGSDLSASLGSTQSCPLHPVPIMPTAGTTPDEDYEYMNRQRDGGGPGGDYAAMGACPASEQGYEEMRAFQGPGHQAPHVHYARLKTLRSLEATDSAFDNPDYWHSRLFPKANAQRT
The following applies: ERBB3; 1 μM; read-out: % control.

Experiment [4] addresses T4, panel of 468 kinases (Homo sapiens, UniProt P42680).
T4 construct: purchased KINOMEscan (ScanMAX) service
T4 sequence (P42680 1-631): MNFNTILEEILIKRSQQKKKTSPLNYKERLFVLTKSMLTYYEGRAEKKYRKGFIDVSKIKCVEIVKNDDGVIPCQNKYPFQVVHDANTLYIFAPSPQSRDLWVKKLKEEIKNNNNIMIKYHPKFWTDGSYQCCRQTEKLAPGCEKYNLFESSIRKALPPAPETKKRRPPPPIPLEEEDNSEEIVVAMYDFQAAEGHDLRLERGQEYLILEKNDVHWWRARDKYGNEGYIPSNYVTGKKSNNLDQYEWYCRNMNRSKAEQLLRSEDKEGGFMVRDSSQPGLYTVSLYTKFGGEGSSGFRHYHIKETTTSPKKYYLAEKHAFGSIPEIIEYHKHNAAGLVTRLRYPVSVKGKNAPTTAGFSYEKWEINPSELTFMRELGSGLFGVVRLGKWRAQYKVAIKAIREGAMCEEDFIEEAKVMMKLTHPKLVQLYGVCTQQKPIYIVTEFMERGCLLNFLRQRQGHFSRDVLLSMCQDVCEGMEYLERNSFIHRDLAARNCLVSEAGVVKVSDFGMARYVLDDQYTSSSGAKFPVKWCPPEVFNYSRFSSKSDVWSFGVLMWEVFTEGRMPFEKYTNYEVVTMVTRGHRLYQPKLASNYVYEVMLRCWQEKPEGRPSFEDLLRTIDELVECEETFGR
The following applies: TEC; 1 μM; read-out: % control.

In experiment [5] the target is T5, panel of 468 kinases (Homo sapiens, UniProt P54760).
T5 construct: purchased KINOMEscan (ScanMAX) service
T5 sequence (P54760 16-987): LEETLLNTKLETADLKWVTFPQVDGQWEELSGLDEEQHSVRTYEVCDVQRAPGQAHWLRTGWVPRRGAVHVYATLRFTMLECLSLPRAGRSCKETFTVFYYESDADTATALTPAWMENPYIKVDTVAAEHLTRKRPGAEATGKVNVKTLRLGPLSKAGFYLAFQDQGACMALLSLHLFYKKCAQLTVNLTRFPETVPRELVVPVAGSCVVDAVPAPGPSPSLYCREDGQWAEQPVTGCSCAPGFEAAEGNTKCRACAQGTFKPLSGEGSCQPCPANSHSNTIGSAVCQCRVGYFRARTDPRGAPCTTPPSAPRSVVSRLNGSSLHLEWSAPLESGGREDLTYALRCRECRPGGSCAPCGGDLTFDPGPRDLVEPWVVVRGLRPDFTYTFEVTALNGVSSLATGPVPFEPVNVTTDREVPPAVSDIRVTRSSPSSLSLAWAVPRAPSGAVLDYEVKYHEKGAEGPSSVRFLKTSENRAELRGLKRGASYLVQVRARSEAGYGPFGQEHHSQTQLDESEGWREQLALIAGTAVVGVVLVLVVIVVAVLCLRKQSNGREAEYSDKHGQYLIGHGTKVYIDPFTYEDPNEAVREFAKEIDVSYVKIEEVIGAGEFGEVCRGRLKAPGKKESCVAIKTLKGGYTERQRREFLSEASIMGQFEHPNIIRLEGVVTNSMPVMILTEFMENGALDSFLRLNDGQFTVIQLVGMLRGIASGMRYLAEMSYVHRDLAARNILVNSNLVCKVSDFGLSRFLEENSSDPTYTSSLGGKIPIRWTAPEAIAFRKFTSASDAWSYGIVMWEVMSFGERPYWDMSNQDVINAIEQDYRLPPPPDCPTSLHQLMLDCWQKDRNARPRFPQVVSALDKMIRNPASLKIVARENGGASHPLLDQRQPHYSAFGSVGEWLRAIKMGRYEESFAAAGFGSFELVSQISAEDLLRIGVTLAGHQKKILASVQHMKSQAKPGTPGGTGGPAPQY
Conditions: EPHB4; 1 μM; read-out: % control.

The target in experiment [6] is T6, panel of 468 kinases (Homo sapiens, UniProt P42336, C420R).
T6 construct: purchased KINOMEscan (ScanMAX) service
T6 sequence (P42336 whole entry C420R): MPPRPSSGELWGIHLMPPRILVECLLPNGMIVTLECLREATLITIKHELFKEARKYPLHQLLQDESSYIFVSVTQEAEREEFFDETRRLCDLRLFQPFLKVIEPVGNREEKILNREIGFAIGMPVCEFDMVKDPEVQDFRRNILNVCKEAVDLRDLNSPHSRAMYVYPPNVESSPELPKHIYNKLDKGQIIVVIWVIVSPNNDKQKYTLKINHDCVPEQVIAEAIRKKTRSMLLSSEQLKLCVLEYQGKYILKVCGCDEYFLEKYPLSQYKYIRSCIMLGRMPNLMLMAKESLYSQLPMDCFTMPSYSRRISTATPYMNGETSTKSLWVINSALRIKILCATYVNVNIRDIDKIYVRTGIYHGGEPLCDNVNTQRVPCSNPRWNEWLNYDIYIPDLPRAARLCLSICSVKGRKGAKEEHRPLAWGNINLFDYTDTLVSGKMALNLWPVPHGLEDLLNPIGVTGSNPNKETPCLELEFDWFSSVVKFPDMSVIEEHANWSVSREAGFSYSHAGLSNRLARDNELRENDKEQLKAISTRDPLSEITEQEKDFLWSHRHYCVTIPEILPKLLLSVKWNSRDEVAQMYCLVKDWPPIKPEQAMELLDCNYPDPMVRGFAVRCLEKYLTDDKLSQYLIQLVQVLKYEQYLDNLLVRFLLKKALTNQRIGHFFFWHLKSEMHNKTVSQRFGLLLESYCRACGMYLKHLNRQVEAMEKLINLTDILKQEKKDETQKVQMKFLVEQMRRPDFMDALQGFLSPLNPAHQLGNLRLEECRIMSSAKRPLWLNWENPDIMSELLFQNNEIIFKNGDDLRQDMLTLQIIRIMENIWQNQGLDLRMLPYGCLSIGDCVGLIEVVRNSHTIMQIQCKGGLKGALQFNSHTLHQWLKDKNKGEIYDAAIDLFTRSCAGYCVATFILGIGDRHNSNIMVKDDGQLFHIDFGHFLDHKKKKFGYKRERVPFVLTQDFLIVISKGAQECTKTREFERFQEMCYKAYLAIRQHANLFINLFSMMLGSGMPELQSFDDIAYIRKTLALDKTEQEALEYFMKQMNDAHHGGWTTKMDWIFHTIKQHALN
Conditions: PIK3CA(C420R); 1 μM; read-out: % control.

Where two headings read alike, the source gives them in different places.

On to `CNc1nc(Nc2ccc(S(=O)(=O)N3CCC(N4CCOCC4)CC3)cc2OC)nc2[nH]cc(Cl)c12` [Compound 12, 5-chloro-N2-(2-methoxy-4-((4-morpholinopiperidin-1-yl)sulfonyl)phenyl)-N4-methyl-7H-pyrrolo[2,3-d]pyrimidine-2,4-diamine], for which the remaining binding at 1 µM on panel of 468 kinases [1] came out at 87%; on panel of 468 kinases [2] (RPS6KA5(Kin.Dom.1-N-terminal)) it was 100%; on panel of 468 kinases [2] (RPS6KA5(Kin.Dom.2-C-terminal)), 69%; at panel of 468 kinases [3] it was 38%; on panel of 468 kinases [4], 93%; on panel of 468 kinases [5] it was 100%. Moreover, the remaining binding at 1 µM on panel of 468 kinases [6] stood at 100%.
Turning to `CNc1nc(Nc2ccc(P3(=O)CCN(C4CCOCC4)CC3)cc2OC)nc2[nH]cc(Cl)c12` [Compound 77, 4-(4-((5-chloro-4-(methylamino)-7H-pyrrolo[2,3-d]pyrimidin-2-yl)amino)-3-methoxyphenyl)-1-(tetrahydro-2H-pyran-4-yl)-1,4-azaphosphinane 4-oxide], the remaining binding at 1 µM at panel of 468 kinases [1] turned out to be 96%; on panel of 468 kinases [2] (RPS6KA5(Kin.Dom.1-N-terminal)), 94%; on panel of 468 kinases [2] (RPS6KA5(Kin.Dom.2-C-terminal)), 20%; at panel of 468 kinases [3], 35%; on panel of 468 kinases [4] it was 97%; on panel of 468 kinases [5], 100%. For the same compound, at panel of 468 kinases [6], the remaining binding at 1 µM was 100%.
Turning to `CNc1nc(Nc2ccc(C(=O)N3CCC(N4CCOCC4)CC3)c3c2OCO3)nc2[nH]cc(Cl)c12` [Compound 75, (7-((5-chloro-4-(methylamino)-7H-pyrrolo[2,3-d]pyrimidin-2-yl)amino)benzo[d][1,3]dioxol-4-yl)(4-morpholinopiperidin-1-yl)methanone], the remaining binding at 1 µM is 83% on panel of 468 kinases [1]; 100% on panel of 468 kinases [2] (RPS6KA5(Kin.Dom.1-N-terminal)); 21% at panel of 468 kinases [2] (RPS6KA5(Kin.Dom.2-C-terminal)); 38% at panel of 468 kinases [3]; 100% at panel of 468 kinases [4]; 100% on panel of 468 kinases [5]. Further, the remaining binding at 1 µM at panel of 468 kinases [6] came to 100%.
